Columns and labels:
[1] = target: Non-receptor tyrosine-protein kinase TNK1 (Homo sapiens) (UniProt Q13470); conditions: Compound concentration 1000.0 nM
[2] = test system: Epidermal growth factor receptor (Homo sapiens), P00533 [UNDEFINED MUTATION]; conditions: Compound concentration 1000.0 nM
[3] = test system: Receptor-type tyrosine-protein kinase FLT3 (Homo sapiens), P36888 [UNDEFINED MUTATION]; conditions: Compound concentration 1000.0 nM
[4] = target: Serine/threonine-protein kinase Chk2 (Homo sapiens) (UniProt O96017); conditions: Compound concentration 1000.0 nM
Chain of Serine/threonine-protein kinase Chk2 (Homo sapiens) (O96017 whole entry): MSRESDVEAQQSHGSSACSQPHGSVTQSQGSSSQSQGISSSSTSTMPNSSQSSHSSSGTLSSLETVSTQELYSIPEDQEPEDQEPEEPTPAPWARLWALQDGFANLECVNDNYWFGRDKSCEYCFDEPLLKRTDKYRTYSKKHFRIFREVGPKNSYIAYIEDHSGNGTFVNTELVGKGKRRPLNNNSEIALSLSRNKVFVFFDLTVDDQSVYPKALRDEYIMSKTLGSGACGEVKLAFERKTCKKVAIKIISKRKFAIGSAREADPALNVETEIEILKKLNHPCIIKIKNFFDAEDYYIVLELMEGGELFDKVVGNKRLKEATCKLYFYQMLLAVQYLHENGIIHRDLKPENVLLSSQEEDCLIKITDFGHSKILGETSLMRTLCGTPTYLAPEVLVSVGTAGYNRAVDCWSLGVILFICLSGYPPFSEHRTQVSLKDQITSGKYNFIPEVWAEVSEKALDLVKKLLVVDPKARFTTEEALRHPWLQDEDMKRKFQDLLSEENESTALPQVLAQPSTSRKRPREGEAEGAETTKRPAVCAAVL

[5] = target: Serine/threonine-protein kinase PAK 2 (Homo sapiens) (UniProt Q13177); conditions: Compound concentration 1000.0 nM
Chain of Serine/threonine-protein kinase PAK 2 (Homo sapiens) (Q13177 whole entry): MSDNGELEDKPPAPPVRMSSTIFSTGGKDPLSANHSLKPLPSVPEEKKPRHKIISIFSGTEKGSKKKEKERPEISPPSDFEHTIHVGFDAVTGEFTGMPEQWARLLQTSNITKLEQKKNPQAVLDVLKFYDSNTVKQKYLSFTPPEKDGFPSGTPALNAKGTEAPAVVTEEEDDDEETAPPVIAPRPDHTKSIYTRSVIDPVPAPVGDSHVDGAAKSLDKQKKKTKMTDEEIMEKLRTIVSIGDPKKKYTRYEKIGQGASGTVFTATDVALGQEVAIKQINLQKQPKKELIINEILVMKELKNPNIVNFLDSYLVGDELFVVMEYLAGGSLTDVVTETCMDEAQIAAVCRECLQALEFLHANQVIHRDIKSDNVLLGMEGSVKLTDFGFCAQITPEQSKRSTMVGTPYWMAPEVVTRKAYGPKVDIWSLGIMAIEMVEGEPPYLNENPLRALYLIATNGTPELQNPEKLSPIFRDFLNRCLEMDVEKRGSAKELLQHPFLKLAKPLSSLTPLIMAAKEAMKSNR

[6] = target: Serine/threonine-protein kinase pim-2 (Homo sapiens) (UniProt Q9P1W9); conditions: Compound concentration 1000.0 nM
Chain of Serine/threonine-protein kinase pim-2 (Homo sapiens) (Q9P1W9 whole entry, looked up): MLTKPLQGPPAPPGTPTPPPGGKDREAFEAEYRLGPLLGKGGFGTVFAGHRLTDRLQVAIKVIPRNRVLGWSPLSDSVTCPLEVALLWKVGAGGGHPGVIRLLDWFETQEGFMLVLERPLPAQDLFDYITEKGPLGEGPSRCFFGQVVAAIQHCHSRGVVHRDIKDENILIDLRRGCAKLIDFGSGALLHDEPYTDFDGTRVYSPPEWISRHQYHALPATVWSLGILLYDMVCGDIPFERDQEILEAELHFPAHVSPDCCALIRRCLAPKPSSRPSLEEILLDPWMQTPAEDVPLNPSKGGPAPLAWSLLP

[7] = target: Serine/threonine-protein kinase Nek4 (Homo sapiens) (UniProt P51957); conditions: Compound concentration 1000.0 nM
Chain of Serine/threonine-protein kinase Nek4 (Homo sapiens) (P51957 whole entry, looked up): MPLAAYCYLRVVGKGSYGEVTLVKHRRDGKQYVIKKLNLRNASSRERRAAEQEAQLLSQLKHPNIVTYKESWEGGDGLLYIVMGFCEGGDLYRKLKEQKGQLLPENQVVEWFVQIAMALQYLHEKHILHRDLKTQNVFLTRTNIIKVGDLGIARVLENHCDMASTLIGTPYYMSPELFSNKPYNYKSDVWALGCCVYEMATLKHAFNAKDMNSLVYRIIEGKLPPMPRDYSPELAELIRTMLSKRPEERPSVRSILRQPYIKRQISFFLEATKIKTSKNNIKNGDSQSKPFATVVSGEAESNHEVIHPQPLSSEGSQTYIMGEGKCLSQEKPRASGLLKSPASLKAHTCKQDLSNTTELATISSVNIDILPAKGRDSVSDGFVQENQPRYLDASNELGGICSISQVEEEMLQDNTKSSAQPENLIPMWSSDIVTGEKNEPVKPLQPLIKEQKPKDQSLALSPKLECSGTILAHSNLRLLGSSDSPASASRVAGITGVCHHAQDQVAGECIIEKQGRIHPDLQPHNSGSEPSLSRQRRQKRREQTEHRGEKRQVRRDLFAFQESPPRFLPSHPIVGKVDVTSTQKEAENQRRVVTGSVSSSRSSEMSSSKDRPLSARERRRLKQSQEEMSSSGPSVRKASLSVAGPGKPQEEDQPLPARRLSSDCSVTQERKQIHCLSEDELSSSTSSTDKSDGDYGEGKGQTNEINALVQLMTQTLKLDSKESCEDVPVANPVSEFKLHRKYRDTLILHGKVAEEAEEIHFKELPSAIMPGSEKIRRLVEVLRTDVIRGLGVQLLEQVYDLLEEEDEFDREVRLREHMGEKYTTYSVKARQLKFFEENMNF

[8] = test system: Receptor-type tyrosine-protein kinase FLT3 (Homo sapiens), P36888 [D835H]; conditions: Compound concentration 1000.0 nM
[9] = target: T1, MAP/microtubule affinity-regulating kinase 4 (Homo sapiens) (UniProt Q96L34); conditions: Compound concentration 1000.0 nM
T1 sequence (whole entry): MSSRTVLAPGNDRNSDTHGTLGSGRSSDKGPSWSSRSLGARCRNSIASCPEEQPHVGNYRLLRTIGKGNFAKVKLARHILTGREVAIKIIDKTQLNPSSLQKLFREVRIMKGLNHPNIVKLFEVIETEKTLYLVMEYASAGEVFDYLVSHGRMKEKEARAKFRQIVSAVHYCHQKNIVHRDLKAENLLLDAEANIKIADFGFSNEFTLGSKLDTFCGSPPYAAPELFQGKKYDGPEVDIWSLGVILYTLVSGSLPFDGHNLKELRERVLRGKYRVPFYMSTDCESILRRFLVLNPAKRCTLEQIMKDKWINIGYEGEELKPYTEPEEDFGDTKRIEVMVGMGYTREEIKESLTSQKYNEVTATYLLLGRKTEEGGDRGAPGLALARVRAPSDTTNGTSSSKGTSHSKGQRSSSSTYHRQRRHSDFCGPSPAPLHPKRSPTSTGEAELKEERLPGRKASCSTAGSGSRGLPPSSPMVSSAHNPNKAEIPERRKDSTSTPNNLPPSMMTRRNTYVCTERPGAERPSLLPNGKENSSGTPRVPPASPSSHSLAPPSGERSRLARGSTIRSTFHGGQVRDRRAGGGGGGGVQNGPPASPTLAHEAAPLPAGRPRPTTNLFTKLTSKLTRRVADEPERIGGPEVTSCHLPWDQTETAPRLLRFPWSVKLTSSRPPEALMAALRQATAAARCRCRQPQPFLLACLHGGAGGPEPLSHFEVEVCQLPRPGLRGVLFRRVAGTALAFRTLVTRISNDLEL

BT-474 = assay: Proliferation assay: BT-474 (breast cancer); format: functional, cell-based; conditions: Homo sapiens
[10] = target: Insulin receptor (Homo sapiens) (UniProt P06213); conditions: Compound concentration 1000.0 nM
[11] = target: T2, cAMP-dependent protein kinase catalytic subunit PRKX (Homo sapiens) (UniProt P51817); conditions: Compound concentration 1000.0 nM
T2 sequence (whole entry): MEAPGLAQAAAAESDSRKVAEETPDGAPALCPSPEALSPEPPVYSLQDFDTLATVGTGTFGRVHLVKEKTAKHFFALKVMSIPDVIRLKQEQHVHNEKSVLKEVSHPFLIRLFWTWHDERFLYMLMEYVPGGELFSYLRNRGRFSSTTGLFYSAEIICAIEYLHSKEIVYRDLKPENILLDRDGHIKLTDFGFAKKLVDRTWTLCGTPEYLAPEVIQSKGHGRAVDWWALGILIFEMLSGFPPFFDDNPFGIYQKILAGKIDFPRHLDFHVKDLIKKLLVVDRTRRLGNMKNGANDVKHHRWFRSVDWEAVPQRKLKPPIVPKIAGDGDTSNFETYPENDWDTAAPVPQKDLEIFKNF

[12] = target: 5-hydroxytryptamine receptor 3A (Homo sapiens) (UniProt P46098); conditions: Compound concentration 10.0 uM
Chain of 5-hydroxytryptamine receptor 3A (Homo sapiens) (P46098 whole entry): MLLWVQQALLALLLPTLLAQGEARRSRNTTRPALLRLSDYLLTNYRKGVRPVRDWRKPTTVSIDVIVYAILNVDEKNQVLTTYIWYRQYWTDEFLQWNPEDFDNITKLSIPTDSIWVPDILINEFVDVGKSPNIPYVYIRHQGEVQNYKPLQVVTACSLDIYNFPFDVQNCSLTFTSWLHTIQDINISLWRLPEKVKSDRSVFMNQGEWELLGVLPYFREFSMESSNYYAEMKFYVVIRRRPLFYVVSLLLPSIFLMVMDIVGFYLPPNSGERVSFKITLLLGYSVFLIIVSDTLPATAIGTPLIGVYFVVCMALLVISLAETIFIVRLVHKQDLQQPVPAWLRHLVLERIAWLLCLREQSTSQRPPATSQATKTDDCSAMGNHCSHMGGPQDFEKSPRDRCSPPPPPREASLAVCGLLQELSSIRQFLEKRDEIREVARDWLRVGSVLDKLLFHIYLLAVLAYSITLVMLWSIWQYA

[13] = target: Serine/threonine-protein kinase Nek6 (Homo sapiens) (UniProt Q9HC98); conditions: Compound concentration 1000.0 nM
[14] = target: Histamine H1 receptor (Homo sapiens) (UniProt P35367); conditions: Compound concentration 10.0 uM
Chain of Histamine H1 receptor (Homo sapiens) (P35367 whole entry): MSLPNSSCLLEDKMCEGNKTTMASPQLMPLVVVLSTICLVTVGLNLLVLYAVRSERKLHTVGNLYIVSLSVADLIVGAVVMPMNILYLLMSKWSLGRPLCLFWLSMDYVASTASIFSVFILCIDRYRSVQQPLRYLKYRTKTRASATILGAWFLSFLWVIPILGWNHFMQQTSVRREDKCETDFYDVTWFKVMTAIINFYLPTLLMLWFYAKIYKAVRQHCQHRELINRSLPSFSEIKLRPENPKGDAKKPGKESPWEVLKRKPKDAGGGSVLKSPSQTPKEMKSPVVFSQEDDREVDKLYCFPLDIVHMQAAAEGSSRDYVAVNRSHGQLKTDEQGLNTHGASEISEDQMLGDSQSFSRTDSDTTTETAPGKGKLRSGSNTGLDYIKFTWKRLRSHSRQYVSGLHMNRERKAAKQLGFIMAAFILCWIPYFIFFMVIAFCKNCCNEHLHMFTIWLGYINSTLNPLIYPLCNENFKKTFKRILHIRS

[15] = target: Serine/threonine-protein kinase SBK1 (Homo sapiens) (UniProt Q52WX2); conditions: Compound concentration 1000.0 nM
Chain of Serine/threonine-protein kinase SBK1 (Homo sapiens) (Q52WX2 whole entry): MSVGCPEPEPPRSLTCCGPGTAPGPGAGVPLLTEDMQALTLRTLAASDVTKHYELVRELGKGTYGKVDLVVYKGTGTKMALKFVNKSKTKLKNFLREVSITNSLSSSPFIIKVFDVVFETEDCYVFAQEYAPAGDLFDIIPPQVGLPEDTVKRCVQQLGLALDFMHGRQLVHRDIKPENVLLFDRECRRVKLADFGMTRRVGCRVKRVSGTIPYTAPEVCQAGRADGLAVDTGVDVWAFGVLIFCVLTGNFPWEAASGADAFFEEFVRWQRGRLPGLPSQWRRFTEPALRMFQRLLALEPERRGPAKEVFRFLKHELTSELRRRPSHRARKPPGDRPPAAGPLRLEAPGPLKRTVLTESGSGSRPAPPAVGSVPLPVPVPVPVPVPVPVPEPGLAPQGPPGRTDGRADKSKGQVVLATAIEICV

[16] = target: Serine/threonine-protein kinase 10 (Homo sapiens) (UniProt O94804); conditions: Compound concentration 1000.0 nM
Chain of Serine/threonine-protein kinase 10 (Homo sapiens) (O94804 whole entry, looked up): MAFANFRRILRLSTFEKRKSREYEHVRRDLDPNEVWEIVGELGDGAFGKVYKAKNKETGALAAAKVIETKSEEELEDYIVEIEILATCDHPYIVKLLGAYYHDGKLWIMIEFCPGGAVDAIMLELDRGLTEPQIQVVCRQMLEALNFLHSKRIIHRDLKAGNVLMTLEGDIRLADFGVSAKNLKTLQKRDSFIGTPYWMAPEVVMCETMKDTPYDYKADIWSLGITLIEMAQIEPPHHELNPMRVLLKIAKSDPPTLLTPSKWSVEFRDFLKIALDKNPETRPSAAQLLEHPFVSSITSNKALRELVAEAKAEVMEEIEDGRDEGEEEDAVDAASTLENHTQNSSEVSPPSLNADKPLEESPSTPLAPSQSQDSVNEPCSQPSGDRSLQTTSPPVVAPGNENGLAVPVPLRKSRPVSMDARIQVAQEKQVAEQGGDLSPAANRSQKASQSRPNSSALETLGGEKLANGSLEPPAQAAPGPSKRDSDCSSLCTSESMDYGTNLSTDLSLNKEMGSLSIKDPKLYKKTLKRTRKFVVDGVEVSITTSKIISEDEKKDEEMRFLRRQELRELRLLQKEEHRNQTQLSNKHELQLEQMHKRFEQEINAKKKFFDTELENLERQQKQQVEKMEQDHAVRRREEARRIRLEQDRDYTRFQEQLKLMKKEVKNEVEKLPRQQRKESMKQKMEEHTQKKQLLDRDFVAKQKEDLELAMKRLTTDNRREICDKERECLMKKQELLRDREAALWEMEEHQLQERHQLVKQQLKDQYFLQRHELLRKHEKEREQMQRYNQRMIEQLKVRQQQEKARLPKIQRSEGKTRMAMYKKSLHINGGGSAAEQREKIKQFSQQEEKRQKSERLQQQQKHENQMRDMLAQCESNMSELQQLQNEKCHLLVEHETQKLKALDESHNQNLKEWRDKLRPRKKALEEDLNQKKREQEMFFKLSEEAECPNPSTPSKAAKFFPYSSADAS

[17] = target: Aurora kinase B (Homo sapiens) (UniProt Q96GD4); conditions: Compound concentration 1000.0 nM
Chain of Aurora kinase B (Homo sapiens) (Q96GD4 whole entry): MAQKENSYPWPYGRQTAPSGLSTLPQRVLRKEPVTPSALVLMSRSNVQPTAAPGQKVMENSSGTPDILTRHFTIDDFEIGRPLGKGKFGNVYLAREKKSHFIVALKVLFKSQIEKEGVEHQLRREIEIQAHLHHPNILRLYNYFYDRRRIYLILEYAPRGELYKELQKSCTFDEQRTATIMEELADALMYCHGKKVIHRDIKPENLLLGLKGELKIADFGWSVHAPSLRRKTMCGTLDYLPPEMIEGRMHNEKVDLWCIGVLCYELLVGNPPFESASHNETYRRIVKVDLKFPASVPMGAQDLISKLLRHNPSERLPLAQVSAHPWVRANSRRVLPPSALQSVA

[18] = target: T3, Homeodomain-interacting protein kinase 4 (Homo sapiens) (UniProt Q8NE63); conditions: Compound concentration 1000.0 nM
T3 sequence (whole entry): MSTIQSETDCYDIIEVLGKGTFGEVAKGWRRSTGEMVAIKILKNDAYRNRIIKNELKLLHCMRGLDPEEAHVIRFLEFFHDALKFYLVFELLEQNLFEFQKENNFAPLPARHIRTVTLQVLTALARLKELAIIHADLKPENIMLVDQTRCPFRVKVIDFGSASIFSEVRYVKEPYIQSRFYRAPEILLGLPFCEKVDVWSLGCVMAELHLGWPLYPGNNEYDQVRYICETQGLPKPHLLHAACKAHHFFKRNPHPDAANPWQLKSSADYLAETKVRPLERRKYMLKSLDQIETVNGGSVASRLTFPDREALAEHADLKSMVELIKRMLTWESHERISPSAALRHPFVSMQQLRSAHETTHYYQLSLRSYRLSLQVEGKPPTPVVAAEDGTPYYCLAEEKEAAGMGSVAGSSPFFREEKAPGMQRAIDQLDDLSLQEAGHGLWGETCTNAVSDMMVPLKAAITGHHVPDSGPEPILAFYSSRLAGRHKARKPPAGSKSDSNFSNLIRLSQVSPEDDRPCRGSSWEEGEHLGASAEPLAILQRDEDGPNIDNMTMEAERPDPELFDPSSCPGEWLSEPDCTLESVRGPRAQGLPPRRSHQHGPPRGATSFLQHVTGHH

SMILES | residual activity [1] | residual activity [2] | residual activity [3] | residual activity [4] | residual activity [5] | residual activity [6] | residual activity [7] | residual activity [8] | residual activity [9] | IC50 (BT-474) | residual activity [10] | residual activity [11] | inhibition [12] | residual activity [13] | inhibition [14] | residual activity [15] | residual activity [16] | residual activity [17] | residual activity [18]
Cc1nc(C2CCN(C(=O)c3ccc(OC(F)(F)F)cc3N)CC2)c2ncc(N3CCN(C)CC3)cc2n1 [BAY-693] | 100% | 70% | 100% | 100% | 64% | 100% | 100% | 69% | 100% | 27.6 µM (not active) | 93% | 100% | 6.25% | 100% | 4.99% | 40% | 96% | 88% | 88%
CN1CCN(c2cnc3c(C4CCN(C(=O)c5ccc(OC(F)(F)F)cc5N)CC4)ncnc3c2)CC1 [BAY-885] | 100% | 83% | 88% | 100% | 100% | 100% | 100% | 75% | 100% | > 30 µM (not active) | 88% | 100% | 5.22% | 92% | 14.6% | 100% | 52% | 90% | 100%
